Entries after “also recorded” stand apart in the source; their conditions may differ. Read-outs that look alike come from different tables or passages of the source.
What was measured:
endogenous TFEB = assay: TFEB nuclear translocation, immunocytochemistry high-content imaging; assay type: cell-based; settings: for TFEB %: PKIS2 primary screening; for TFEB translocation (in words): SH-SY5Y
endogenous TFE3 = assay: TFE3 nuclear translocation, immunocytochemistry high-content imaging; assay type: cell-based; settings: for TFE3 %: PKIS2 primary screening; for nTFE3 %: primary screen, 1 µM; for nTFE3 % / EC50 / TFE3 translocation (in words) / Best-Fit Values Span: SH-SY5Y; for Best-Fit Values Span: TFE3 assay concentration response; for Summary: activity in TFE3 assays compared with original NK-140, OT activity
SH-SY5Y cells [1] = settings: for DQ Intensity / DQ Spot: PKIS2 primary screening; for DQ Intensity: DQ Red BSA intensity; for DQ Spot: DQ Red BSA spot count
Source text: The PKIS2 Library was supplied by The Structural Genomics Consortium at the University of North Carolina at Chapel Hill.

PRKD2 = molecular target: T1, PRKD2 (Homo sapiens, UniProt Q9BZL6); settings: cited from earlier work
T1 sequence (Q9BZL6 1-878): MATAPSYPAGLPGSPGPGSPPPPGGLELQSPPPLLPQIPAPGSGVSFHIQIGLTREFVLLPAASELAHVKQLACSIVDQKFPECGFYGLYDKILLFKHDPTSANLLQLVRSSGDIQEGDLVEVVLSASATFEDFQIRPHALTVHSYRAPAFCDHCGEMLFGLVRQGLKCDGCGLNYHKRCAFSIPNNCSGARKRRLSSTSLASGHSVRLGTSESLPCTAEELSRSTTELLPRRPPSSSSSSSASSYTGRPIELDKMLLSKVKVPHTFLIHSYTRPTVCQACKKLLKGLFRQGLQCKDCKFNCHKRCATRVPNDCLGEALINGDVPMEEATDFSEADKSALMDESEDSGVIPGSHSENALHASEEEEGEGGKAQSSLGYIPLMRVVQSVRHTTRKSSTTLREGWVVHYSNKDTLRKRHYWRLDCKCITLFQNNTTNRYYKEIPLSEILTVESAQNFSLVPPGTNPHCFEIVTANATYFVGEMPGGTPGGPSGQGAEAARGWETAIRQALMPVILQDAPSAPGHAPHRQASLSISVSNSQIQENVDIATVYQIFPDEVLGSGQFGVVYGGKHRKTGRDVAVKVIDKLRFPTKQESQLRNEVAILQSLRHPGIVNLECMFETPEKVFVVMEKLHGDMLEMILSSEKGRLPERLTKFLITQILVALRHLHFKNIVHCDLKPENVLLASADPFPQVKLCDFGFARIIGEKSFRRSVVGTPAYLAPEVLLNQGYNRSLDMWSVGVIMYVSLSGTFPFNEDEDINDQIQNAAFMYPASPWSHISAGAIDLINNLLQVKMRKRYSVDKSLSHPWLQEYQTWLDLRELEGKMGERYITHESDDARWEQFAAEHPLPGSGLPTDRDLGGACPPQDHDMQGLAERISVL

CDC42BPG/DMPK2 = CDC42BPG/DMPK2 (Homo sapiens, UniProt Q6DT37); settings: cited from earlier work
Sequence of CDC42BPG/DMPK2 (Q6DT37 whole entry): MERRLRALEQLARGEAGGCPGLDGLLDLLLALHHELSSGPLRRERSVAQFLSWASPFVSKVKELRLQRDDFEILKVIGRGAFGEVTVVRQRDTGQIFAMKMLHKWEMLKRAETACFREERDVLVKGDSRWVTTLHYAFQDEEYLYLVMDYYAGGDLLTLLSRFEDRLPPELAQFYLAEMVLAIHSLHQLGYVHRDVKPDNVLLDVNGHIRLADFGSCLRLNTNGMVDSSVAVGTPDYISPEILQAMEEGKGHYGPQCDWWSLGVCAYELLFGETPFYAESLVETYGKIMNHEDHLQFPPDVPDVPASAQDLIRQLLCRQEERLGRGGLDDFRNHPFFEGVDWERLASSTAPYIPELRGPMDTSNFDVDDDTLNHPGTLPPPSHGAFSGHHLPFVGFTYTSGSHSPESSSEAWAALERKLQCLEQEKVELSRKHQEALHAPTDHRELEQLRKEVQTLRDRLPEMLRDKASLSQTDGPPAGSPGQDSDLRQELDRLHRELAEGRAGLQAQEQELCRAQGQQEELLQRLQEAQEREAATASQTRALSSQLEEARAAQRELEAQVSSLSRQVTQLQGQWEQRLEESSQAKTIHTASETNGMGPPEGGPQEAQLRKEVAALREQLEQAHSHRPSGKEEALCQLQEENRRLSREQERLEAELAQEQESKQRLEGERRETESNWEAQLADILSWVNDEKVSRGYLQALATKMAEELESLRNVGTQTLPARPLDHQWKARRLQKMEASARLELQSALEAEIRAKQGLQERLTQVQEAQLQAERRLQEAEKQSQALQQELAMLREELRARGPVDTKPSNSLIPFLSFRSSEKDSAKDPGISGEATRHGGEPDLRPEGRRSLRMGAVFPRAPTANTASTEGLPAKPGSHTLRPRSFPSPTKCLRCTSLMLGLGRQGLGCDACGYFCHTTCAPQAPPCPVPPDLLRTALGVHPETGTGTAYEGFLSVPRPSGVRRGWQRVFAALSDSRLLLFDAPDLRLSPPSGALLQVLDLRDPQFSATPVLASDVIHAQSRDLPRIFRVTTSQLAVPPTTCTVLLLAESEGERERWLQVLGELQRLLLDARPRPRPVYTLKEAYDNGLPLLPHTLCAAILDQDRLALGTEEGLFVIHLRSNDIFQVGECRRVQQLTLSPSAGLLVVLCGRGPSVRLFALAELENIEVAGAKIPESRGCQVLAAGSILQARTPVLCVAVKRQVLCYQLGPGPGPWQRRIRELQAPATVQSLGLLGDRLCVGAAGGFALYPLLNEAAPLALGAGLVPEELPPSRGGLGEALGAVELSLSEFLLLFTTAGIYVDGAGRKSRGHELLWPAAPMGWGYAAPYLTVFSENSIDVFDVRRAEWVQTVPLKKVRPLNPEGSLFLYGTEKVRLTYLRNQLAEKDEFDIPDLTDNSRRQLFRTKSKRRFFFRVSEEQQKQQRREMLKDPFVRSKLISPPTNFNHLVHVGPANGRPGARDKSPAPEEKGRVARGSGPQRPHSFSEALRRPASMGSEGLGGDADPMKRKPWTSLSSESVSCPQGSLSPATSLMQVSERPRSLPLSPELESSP

CDC42BPB/MRCKB = CDC42BPB/MRCKB (Homo sapiens, UniProt Q9Y5S2); settings: cited from earlier work
CIT = CIT (Homo sapiens, UniProt O14578); settings: cited from earlier work
Sequence of CIT (O14578 whole entry): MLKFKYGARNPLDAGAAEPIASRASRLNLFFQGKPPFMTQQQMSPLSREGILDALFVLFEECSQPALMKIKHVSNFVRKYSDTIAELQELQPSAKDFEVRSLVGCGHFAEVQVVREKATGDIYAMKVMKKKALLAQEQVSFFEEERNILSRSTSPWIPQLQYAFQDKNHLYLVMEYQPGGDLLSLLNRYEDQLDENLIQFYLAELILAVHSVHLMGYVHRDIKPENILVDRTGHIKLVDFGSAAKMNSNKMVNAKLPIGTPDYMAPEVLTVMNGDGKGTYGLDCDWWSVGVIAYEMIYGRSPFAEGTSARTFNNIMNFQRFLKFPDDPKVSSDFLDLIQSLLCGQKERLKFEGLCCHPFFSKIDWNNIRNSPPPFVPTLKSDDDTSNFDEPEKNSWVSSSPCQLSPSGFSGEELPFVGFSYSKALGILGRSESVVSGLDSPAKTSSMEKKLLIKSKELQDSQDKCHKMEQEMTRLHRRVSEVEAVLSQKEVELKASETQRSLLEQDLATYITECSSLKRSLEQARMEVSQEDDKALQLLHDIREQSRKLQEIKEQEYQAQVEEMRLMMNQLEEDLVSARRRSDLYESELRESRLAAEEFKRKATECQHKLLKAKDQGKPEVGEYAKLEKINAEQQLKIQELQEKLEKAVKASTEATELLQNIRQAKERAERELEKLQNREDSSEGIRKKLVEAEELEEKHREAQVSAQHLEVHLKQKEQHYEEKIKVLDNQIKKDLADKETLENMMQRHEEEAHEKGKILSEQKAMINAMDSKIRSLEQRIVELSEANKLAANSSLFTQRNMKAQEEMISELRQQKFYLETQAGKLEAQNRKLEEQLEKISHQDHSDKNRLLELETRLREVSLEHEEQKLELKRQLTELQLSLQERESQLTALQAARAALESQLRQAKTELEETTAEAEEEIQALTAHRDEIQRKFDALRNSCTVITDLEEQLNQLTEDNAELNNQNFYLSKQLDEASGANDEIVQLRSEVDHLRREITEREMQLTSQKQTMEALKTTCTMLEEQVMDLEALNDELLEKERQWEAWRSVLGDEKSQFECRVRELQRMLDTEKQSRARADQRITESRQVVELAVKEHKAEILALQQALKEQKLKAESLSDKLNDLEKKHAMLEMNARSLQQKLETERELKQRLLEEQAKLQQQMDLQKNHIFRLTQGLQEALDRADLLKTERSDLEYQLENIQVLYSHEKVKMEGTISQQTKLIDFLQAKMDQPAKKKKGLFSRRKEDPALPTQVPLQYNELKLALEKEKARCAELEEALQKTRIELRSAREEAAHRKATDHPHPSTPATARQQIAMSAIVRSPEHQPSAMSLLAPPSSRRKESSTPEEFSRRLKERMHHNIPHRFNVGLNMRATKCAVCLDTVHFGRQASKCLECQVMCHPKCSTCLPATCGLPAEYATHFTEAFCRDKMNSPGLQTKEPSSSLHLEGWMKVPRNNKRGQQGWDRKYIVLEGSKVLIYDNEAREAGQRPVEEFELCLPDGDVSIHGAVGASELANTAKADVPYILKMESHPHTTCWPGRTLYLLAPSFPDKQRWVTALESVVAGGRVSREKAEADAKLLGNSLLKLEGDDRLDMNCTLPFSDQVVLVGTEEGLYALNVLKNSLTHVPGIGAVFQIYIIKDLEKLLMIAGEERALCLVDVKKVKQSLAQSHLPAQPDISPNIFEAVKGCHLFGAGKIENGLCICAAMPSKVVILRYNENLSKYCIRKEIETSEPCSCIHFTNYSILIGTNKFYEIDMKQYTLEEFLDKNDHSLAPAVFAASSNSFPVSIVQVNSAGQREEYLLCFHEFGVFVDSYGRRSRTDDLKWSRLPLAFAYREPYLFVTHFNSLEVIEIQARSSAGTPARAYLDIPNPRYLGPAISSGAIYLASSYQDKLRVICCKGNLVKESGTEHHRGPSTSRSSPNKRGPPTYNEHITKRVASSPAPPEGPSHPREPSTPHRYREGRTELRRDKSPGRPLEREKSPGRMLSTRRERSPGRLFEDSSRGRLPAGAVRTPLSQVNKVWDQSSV

TGFBR2 = TGFBR2 (Homo sapiens, UniProt P37173); settings: cited from earlier work
Sequence of TGFBR2 (P37173 23-567): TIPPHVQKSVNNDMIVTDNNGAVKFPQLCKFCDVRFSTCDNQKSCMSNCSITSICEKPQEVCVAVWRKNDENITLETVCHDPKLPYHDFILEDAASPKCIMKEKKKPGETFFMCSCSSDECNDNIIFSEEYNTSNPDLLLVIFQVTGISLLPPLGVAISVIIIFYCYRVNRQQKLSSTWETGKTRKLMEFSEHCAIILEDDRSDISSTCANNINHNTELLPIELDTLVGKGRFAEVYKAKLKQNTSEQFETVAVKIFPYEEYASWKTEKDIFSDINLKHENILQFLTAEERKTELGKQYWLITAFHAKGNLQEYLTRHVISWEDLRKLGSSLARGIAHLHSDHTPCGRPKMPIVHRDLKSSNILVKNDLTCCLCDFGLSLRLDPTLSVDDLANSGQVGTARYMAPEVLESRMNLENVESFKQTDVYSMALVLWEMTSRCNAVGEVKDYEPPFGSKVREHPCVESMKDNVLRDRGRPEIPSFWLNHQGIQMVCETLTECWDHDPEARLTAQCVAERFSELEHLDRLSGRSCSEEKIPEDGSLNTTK

CSNK1E = CSNK1E (Homo sapiens, UniProt P49674); settings: cited from earlier work
PRKD3 = molecular target: T2, PRKD3 (Homo sapiens, UniProt O94806); settings: cited from earlier work
T2 sequence (O94806 1-890): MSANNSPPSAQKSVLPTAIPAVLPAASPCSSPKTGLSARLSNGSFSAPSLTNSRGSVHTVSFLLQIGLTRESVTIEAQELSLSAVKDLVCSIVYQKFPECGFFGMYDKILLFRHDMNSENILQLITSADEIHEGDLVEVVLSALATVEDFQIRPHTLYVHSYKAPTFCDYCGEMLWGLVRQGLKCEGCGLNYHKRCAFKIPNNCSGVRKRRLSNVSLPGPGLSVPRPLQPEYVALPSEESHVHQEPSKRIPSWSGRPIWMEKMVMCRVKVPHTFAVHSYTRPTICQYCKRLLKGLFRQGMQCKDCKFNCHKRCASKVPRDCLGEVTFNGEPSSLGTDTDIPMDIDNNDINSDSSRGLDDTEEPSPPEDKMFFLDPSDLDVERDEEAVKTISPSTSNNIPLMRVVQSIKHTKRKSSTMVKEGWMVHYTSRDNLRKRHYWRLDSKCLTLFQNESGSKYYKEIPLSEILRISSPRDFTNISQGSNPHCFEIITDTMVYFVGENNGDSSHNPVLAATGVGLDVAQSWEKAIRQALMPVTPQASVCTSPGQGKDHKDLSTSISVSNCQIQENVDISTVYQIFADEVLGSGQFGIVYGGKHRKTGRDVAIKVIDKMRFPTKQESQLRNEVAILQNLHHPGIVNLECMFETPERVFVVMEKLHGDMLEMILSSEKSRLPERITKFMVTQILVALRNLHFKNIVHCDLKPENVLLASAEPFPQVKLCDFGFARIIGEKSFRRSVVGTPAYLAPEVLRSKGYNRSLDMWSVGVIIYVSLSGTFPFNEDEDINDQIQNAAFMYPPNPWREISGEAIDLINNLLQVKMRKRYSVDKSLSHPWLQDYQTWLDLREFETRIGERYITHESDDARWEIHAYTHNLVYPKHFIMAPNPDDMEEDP

JAK1(JH2) = molecular target: T3, JAK1(JH2) (Homo sapiens, UniProt P23458); settings: cited from earlier work
T3 construct: JAK1(JH2)
T3 sequence (P23458 583-855 limits assumed): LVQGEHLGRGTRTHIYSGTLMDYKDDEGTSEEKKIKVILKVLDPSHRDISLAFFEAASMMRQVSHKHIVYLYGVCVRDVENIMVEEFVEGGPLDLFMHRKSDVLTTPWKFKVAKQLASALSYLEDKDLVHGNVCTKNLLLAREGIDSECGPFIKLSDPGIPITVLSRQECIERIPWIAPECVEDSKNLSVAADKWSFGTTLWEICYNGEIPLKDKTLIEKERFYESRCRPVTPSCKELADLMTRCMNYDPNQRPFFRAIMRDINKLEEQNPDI

PIKFYVE = PIKFYVE (Homo sapiens, UniProt Q9Y2I7); settings: cited from earlier work
BMPR1B = BMPR1B (Homo sapiens, UniProt O00238); settings: cited from earlier work
Sequence of BMPR1B (O00238 14-502): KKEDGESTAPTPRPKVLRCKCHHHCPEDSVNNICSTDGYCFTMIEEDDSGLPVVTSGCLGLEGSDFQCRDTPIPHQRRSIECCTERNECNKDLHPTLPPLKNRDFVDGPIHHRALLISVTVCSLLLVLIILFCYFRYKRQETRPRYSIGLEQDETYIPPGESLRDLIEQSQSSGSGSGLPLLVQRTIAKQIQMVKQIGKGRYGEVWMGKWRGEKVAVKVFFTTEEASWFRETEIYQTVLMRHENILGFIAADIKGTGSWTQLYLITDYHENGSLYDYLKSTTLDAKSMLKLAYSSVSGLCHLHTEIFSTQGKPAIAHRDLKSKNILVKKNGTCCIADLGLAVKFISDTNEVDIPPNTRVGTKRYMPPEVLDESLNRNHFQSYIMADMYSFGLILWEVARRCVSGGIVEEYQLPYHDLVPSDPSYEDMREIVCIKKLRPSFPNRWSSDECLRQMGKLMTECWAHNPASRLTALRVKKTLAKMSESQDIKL

MTOR = MTOR (Homo sapiens, UniProt P42345); settings: cited from earlier work
SH-SY5Y cells [2] = assay: AK (adenylate kinase) release ToxiLight cytotoxicity assay; settings: for AK: PKIS2 primary screening
Procedure: Total cell lysis with 5 µL 5% Triton-X 100 (Sigma-Aldrich, T8787) is used as a positive control for the assay and toxicity is expressed as a percentage of luminescence under DMSO conditions.

SH-SY5Y cells [3] = assay: Nuclear count from microscopy images (cellular growth and toxicity); settings: for Nuclear Count: PKIS2 primary screening

| SMILES | TFEB % (endogenous TFEB) [%] | TFE3 % (endogenous TFE3) [%] | nTFE3 % (endogenous TFE3; 24 h) [%] | DQ Intensity (SH-SY5Y cells [1]) | DQ Spot (SH-SY5Y cells [1]) | KINOMEscan binding PRKD2 (PRKD2) [%] | KINOMEscan binding CDC42BPG/DMPK2 (CDC42BPG/DMPK2) [%] | KINOMEscan binding CDC42BPB/MRCKB (CDC42BPB/MRCKB) [%] | KINOMEscan binding CIT (CIT) [%] | KINOMEscan binding TGFBR2 (TGFBR2) [%] | KINOMEscan binding CSNK1E (CSNK1E) [%] | KINOMEscan binding PRKD3 (PRKD3) [%] | KINOMEscan binding JAK1(JH2) (JAK1(JH2)) [%] | KINOMEscan binding PIKFYVE (PIKFYVE) [%] | KINOMEscan binding BMPR1B (BMPR1B) [%] | KINOMEscan binding MTOR (MTOR) [%] | AK (SH-SY5Y cells [2]) | Nuclear Count (SH-SY5Y cells [3]) | TFEB translocation (in words) (endogenous TFEB; 24 h treatment) | Summary (endogenous TFE3) | other results |
| --- | --- | --- | --- | --- | --- | --- | --- | --- | --- | --- | --- | --- | --- | --- | --- | --- | --- | --- | --- | --- | --- |
| Cc1cccc(-c2nc(Nc3ccncc3)c3sccc3n2)n1 [GW869641] | 20.32 | 6.93 | 6.9 | 90.97 | 102.97 | 99.6 | 98.5 | 98.5 | 96.6 | 95.6 | 94.9 | 90.7 | 90.2 | 86 | 82 | 75 | 80.75 | 70.17 |  |  |  |
| Cc1cccc(-c2nc(Nc3ccc4ncsc4c3)c3ccccc3n2)n1 [NK140] |  |  |  |  |  |  |  |  |  |  |  |  |  |  |  |  |  |  | modest TFEB and TFE3 translocation | Original | TFEB translocation (in words) (endogenous TFEB; 48 h treatment): induced; also recorded: elevated TFEB and TFE3 translocation; EC50 (endogenous TFE3; Homo sapiens, 24 h treatment, estimated, read-out: Cellular EC50 against TFE3): 0.65 µM; EC50 (endogenous TFE3; Homo sapiens, TFE3 assay, 24 h, µM, read-out: Best-Fit Values EC50 (converted)): 0.64 µM; TFE3 translocation (in words) (endogenous TFE3; 24 h treatment): modest TFEB and TFE3 translocation; TFE3 translocation (in words) (endogenous TFE3; 48 h treatment): induced; also recorded: elevated TFEB and TFE3 translocation; Best-Fit Values Span (endogenous TFE3; 24 h): 37.55; DQ Red BSA fluorescence intensity (in words) (SH-SY5Y cells [1]; SH-SY5Y, 24 h treatment): no increases in DQ Red BSA intensity; DQ Red BSA intensity (in words) (SH-SY5Y cells [1]; SH-SY5Y, 48 h treatment): additional increase in DQ Red BSA intensity; AK signal (in words) (SH-SY5Y cells [2]; SH-SY5Y, 24 h treatment): reduced; Cellular toxicity (AK release and nuclear count, in words) (SH-SY5Y cells [2]; SH-SY5Y, 24 h treatment): no increases in DQ Red BSA intensity or cellular toxicity; AK release (in words) (SH-SY5Y cells [2]; SH-SY5Y, 48 h treatment): without increases in AK; Nuclear count (in words) (SH-SY5Y cells [3]; SH-SY5Y, 48 h treatment): small reduction in nuclear count from 0.75 µM |
| Cc1cccc(-c2nc(Nc3cccc(C(N)=O)c3)c3ccccc3n2)n1 [GW876019] | 7.94 | 17.52 | 17.5 | 115.76 | 107.41 | 66 | 0 | 32 | 45 | 15 | 15 | 87 | 78 | 16 | 0 | 35 | 199.56 | 75.33 |  |  |  |
| Cc1cccc(-c2nc(Nc3ccncc3)c3ccccc3n2)n1 [NK215] |  |  |  |  |  |  |  |  |  |  |  |  |  |  |  |  |  |  |  | Weaker | EC50 (endogenous TFE3; Homo sapiens, 24 h, read-out: Best-Fit Values EC50): 2.04 µM; Best-Fit Values Span (endogenous TFE3; 24 h): 18.17; KINOMEscan PRKD2 (PRKD2; PRKD2, Published KINOMEscan, ref original PKIS2 published data): 99; KINOMEscan CDC42BPG/DMPK2 (CDC42BPG/DMPK2): 76; KINOMEscan CDC42BPB/MRCKB (CDC42BPB/MRCKB): 63; KINOMEscan CIT (CIT; CIT, Published KINOMEscan, ref original PKIS2 published data): 91.1; KINOMEscan TGFBR2 (TGFBR2; TGFBR2, Published KINOMEscan, ref original PKIS2 published data): 95.7; KINOMEscan CSNK1E (CSNK1E; CSNK1E, Published KINOMEscan, ref original PKIS2 published data): 77; KINOMEscan PRKD3 (PRKD3; kinase PRKD3, Published KINOMEscan, ref original PKIS2 published data): 69; KINOMEscan JAK1(JH2domain-pseudokinase) (JAK1(JH2); JAK1(JH2domain-pseudokinase), Published KINOMEscan, ref original PKIS2 published data): 74; KINOMEscan PIKFYVE (PIKFYVE; kinase PIKFYVE, Published KINOMEscan, ref original PKIS2 published data): 57; KINOMEscan BMPR1B (BMPR1B; BMPR1B, Published KINOMEscan, ref original PKIS2 published data): 29; KINOMEscan MTOR (MTOR; MTOR, Published KINOMEscan, ref original PKIS2 published data): 50 |
| COc1ccc2nc(-c3cccc(C)n3)nc(Nc3ccncc3)c2c1 [GSK204919] | 4.22 | 7.07 | 7 | 144.99 | 139.38 | 98.8 | 91.1 | 94.1 | 73 | 10 | 64 | 100 | 80 | 81 | 0 | 43 | 106.43 | 98.76 | did not show TFEB and TFE3 activation |  | TFE3 translocation (in words) (endogenous TFE3; 24 h treatment): did not show TFEB and TFE3 activation |
| Cc1cccc(-c2nc(Nc3ccc4nn(C)cc4c3)c3ccccc3n2)n1 [NK167] |  |  |  |  |  |  |  |  |  |  |  |  |  |  |  |  |  |  |  | Weaker, Strong OT activity | EC50 (endogenous TFE3; TFE3 assay, 24 h, second EC50 of biphasic/bell-shaped fit or OT (off-target) activity, unit inferred, read-out: Best-Fit Values EC50 (converted)): 1.05 µM; EC50 (endogenous TFE3; TFE3 assay, 24 h, µM, read-out: Best-Fit Values EC50 (converted)): 1.04 µM |

Source: PMC9851200, “Multiparameter phenotypic screening for endogenous TFEB and TFE3 translocation identifies novel chemical series modulating lysosome function” (Autophagy, 2022)
